Measurements published in article PMC8659278, “Dianthiamides A–E, Proline-Containing Orbitides from Dianthus chinensis” (Molecules, 2021).
Like-named read-outs stand apart in the source and are kept apart here. Peptide text beside a SMILES is read from it.

Test system: human non-small cell lung cancer A549 cells
Assay: MTT cytotoxicity assay, A549 cells
Type: cell-based
Protocol: Human non-small cell lung cancer A549 and human stomach adenocarcinoma MKN-28 cells were purchased from the American Type Culture Collection (ATCC; Manassas, VA, USA). […] Docetaxel was used as a positive control with an IC50 value of 0.08 μM on A549 cells.

## CC[C@H](C)[C@@H]1NC(=O)[C@@H]2CCCN2C(=O)[C@@H]2CCCN2C(=O)[C@H](CC(C)C)NC(=O)[C@H](Cc2ccccc2)NC(=O)CNC(=O)[C@H](CC(N)=O)NC1=O [dianthiamide A, cyclo-(Gly^1-L-Phe^2-L-Leu^3-L-trans-Proa^4-L-cis-Prob^5-L-Ile^6-L-Asn^7)] (cyclo(GFLPPIN))
human, 48 h
  IC50: 47.9 µM

## CC(=O)O[C@@]12CO[C@@H]1C[C@H](O)[C@@]1(C)C(=O)[C@H](O)C3=C(C)[C@@H](OC(=O)[C@H](O)[C@@H](NC(=O)OC(C)(C)C)c4ccccc4)C[C@@](O)([C@@H](OC(=O)c4ccccc4)[C@H]21)C3(C)C [docetaxel]
Homo sapiens, A549, MTT assay, 5 × 10^3 cells/well, 48 h incubation, tested 5–200 µM, absorbance 540 nm, read-out: cytotoxic activity against A549 cell line, IC50
  IC50: 0.08 µM
